Holding throughout (format): cell-based
One assay deals with CB1 (Homo sapiens, UniProt P21554). The assay can be described thus: BRET Gαi1 engagement, CB1 wild-type. The note with it: CB1 WT, HEK-293T, normalized against CP55940, mean ± SEM. In general terms: Bioluminescence resonance energy transfer reports proximity on the nanometre scale.
For assay [1], the target named is T1, CB2 (Homo sapiens, UniProt P34972). Put plainly: BRET Gαi1 engagement, CB2 wild-type. The settings on record: HEK-293T, read-out: E max, CB2 Gαi1 Engagement.
Assay [2] concerns the target T1, CB2. The assay can be described thus: BRET β-arrestin 2 recruitment, CB2 wild-type. The settings on record: HEK-293T, read-out: E max, CB2 β-Arrestin 2 Recruitment.
The next assay deals with CB1 L193I (Homo sapiens, UniProt P21554, L193I). Put plainly: BRET Gαi1 engagement, CB1 L193I mutant. The note with it: read-out: E max, CB1 L193I Gαi1 Engagement.
The target in another assay is CB1 I267L (Homo sapiens, UniProt P21554, I267L). The assay can be described thus: BRET Gαi1 engagement, CB1 I267L mutant. The note with it: read-out: E max, CB1 I267L Gαi1 Engagement.
In the next assay the target is CB2 I110L (Homo sapiens, UniProt P34972, I110L). Put plainly: BRET Gαi1 engagement, CB2 I110L mutant. The note with it: read-out: E max, CB2 I110L Gαi1 Engagement.
The target of another assay is CB2 L182I (Homo sapiens, UniProt P34972, L182I). Put plainly: BRET Gαi1 engagement, CB2 L182I mutant. The settings on record: read-out: E max, CB2 L182I Gαi1 Engagement.
A further assay deals with CB2 V261L (Homo sapiens, UniProt P34972, V261L). The assay can be described thus: BRET Gαi1 engagement, CB2 V261L mutant. The settings on record: read-out: E max, CB2 V261L Gαi1 Engagement.
The target in assay [3] is CB2 triple mutant (I110L/L182I/V261L) (Homo sapiens, UniProt P34972, I110L/L182I/V261L). The assay can be described thus: BRET Gαi1 engagement, CB2 triple mutant. The note with it: read-out: E max, CB2 Triple Mutations Gαi1 Engagement.
Chain of CB2 triple mutant (I110L/L182I/V261L) (P34972 whole entry I110L/L182I/V261L): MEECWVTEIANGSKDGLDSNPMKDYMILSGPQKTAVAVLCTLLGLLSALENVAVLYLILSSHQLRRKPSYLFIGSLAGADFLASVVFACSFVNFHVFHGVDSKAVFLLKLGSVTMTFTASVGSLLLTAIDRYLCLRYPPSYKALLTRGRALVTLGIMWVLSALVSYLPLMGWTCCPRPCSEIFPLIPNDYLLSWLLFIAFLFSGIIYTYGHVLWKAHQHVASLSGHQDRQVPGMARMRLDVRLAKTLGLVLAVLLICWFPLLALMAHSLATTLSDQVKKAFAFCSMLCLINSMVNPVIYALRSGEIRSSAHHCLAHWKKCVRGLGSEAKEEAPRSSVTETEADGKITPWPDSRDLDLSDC

T1 sequence (P34972 whole entry): as the sequence (P34972 whole entry I110L/L182I/V261L) above, with L110I, I182L, L261V counted along it
Chain of CB1 (P21554 whole entry): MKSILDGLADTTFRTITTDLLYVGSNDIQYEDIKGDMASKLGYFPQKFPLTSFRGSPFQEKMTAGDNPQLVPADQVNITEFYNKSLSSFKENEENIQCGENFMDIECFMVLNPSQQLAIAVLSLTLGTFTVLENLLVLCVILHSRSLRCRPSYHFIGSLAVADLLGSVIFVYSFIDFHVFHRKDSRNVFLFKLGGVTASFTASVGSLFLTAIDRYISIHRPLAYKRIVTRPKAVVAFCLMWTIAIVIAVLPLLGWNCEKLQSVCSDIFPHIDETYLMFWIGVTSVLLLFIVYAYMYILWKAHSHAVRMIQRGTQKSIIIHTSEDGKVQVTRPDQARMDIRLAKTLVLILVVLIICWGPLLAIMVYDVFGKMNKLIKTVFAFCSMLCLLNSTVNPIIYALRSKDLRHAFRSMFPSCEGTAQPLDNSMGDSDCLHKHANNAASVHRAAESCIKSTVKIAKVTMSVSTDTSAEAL
Chain of CB2 V261L (P34972 whole entry V261L): as the sequence (P34972 whole entry I110L/L182I/V261L) above, with L110I, I182L counted along it
Chain of CB1 I267L (P21554 whole entry I267L): as the sequence (P21554 whole entry) above, with I267L counted along it
Chain of CB1 L193I (P21554 whole entry L193I): as the sequence (P21554 whole entry) above, with L193I counted along it
Chain of CB2 L182I (P34972 whole entry L182I): as the sequence (P34972 whole entry I110L/L182I/V261L) above, with L110I, L261V counted along it
Chain of CB2 I110L (P34972 whole entry I110L): as the sequence (P34972 whole entry I110L/L182I/V261L) above, with I182L, L261V counted along it

As for `CCCCCCC(C)(C)c1ccc([C@@H]2C[C@H](O)CC[C@H]2CCCO)c(O)c1` [CP55940], the “E max, CB1 Gαi1 Engagement” value at CB1 stood at 99.4 ± 3.0%. Moreover, the Emax at CB2 [1] stood at 99.8 ± 2.7%; on CB2 [2], 99.7 ± 2.7%; on CB1 L193I, 98.2 ± 2.2%; on CB1 I267L, 77.6 ± 2.5%; on CB2 I110L it was 83.1 ± 2.8%; on CB2 L182I, 32.2 ± 2.5%. Further, the Emax was found to be 33.8 ± 2.6% on CB2 V261L and 3 ± 2% in [3].

The values are drawn from paper PMC13495017 (ACS Bio & Med Chem Au, 2026).
